One test deals with ISC-enriched organoids. The test can be described thus: Primary screen, 384-well 2.5-D organoid differentiation (ENR+CD, 6 days): carbachol-induced lysozyme secretion (LYZ.S). It counts as cell-based, murine. As to conditions: primary screen; for Z.LYZ.S: standard z score; for SSMD.LYZ.S: strictly standardized mean difference. From the text:
High-throughput screening.

The test system of the next test is lysozyme (LYZ). In words: Western blotting of lysozyme in 3D-cultured intestinal organoids. It counts as cell-based, murine. As to conditions: organoids cultured 6 days in ENR+CV, ENR+CD or ENR. The text has this:
Western blotting. ISC-enriched organoids cultured in 3D Matrigel with ENRCV media were passaged to 24-well plate in 3D Matrigel with ENRCV. At day zero, media were replaced to ENR or ENRCD with or without indicated compounds, and media were replaced every other day. At day six, cells were harvested from Matrigel by mechanical disruption and suspended in basal media. Cell pellets were lysed with Pierce© IP lysis buffer (ThermoFisher, 87787) containing Halt™ Protease Inhibitor Cocktail, EDTA-Free (ThermoFisher, 87785) after 3-minute centrifuge at 300×g at 4° C. Cell extracts were resolved by NuPAGE© SDS-PAGE Gel system (ThermoFisher) and electroblotted onto polyvinylidene difluoride membranes using Criterion™ Blotter (Biorad). The membranes were blocked with 2% Blotting-Grade Blocker (Biorad, 1706404) in TBS-T (50 mM Tris-HCl, 150 mM NaCl, and 0.1% Tween 20, pH 8.0) and then probed with appropriate antibodies. Detection was performed using ECL Select™ Western Blotting Detection Reagent (Amersham, 45-000-999) and ImageQuant LAS4000 (GE Healthcare).
Western blotting. Organoid-containing gel was homogenized in basal medium and centrifuged at 300 rcf for 3 min. Organoid pellet was lysed with ice-cold Pierce IP Lysis Buffer (Thermo Fisher Scientific, #87787) containing Halt Protease Inhibitor Cocktail, EDTA-Free (Thermo Fisher Scientific, #87785) and incubated on ice for 20 min. The lysate was centrifuged at 17,000 rcf for 10 min, and the supernatant was combined with NuPAGE LDS Sample Buffer (Thermo Fisher Scientific, NP0007). Protein concentration was determined by Pierce 660 nm Protein Assay (Thermo Fisher Scientific, #22660) and normalized to the lowest concentration among each sample set. […] Chemiluminescent signals were detected by LAS4000 (GE Healthcare) using Amersham ECL Select Western Blotting Detection Reagent (GE Healthcare, #45-000-999), and total protein signals were obtained by Odyssey Imaging System (LI-COR Biosciences) using REVERT Total Protein Stain Kit (LI-COR Biosciences, #926-11010).
(In general: Immunoblotting shows a protein as a band on a membrane.)

The mark [1] stands for this setting: 1st of the 4 dose lines of the treatment (dose not given).
Where [2] appears, read: 2nd of the 4 dose lines of the treatment (dose not given).
Setting [3] is: 3rd of the 4 dose lines of the treatment (dose not given).
Setting [4] is: 4th of the 4 dose lines of the treatment (dose not given).

`O=C(/C=C\n1cnc(-c2cc(C(F)(F)F)cc(C(F)(F)F)c2)n1)NNc1cnccn1` [KPT-330]: the Z.LYZ.S in the test with ISC-enriched organoids (setting [1]) is 1.677; in the test with ISC-enriched organoids (setting [2]), −1.821; with ISC-enriched organoids (setting [3]), −2.523; in the test with ISC-enriched organoids (setting [4]) it was −2.733. Besides, the SSMD.LYZ.S in the test with ISC-enriched organoids (setting [1]) was 1.329; in the test with ISC-enriched organoids (setting [2]), −0.894; in the test with ISC-enriched organoids (setting [3]), −1.575; in the test with ISC-enriched organoids (setting [4]), −1.599. The “LYZ abundance per unit protein (Western blotting)” value with lysozyme (LYZ) is “appreciably increase LYZ abundance”.

The values are drawn from US20230398130A1, “METHODS AND COMPOSITIONS FOR DIFFERENTIATING STEM CELLS” (Massachusetts Institute of Technology, priority 2020, published 2023).
